The record followed here is patent US20030108610A1, “Methods and compositions for the delivery of pharmaceutical agents and/or the prevention of adhesions” (priority 1996, published 2003).

Bounds are passed on as bounds.

For data set [1] the following is noted: 20% w/w poloxamer 407F. As to the method:
Hydrophilic co-surfactants in the form of fatty acid soaps (i.e. sodium oleate, sodium laurate, sodium caprate, and sodium caprylate) were obtained from Nu-Chek Prep. (Elysian, Minn.).
For phase behavior studies, samples were loaded into 5 ml Wheaton vacuoles (Fisher Scientific, Pittsburgh, Pa.), and flame-sealed. The vacuoles were then immersed in a constant temperature bath. For temperatures less than 60° C., phase behavior was determined in a water bath (Koehler, Bohemia, N.Y.). At higher temperatures an oil bath (Haake, model DC3, Germany) was utilized. Temperature was raised in two degree increments from ca. 1° C. to 120° C. Samples were allowed to equilibrate for at least 1 hour at constant temperature prior to examination. Since the cubic liquid crystalline phase is isotropic (i.e. not birefringent), the determination of the gel boundary is somewhat subjective. Once equilibrium was reached, the vials were simply inverted and gravity was allowed to determine if the sample was in the sol or gel state.

Data set [2] can be described thus: Drug solubilization in poloxamer 407-water systems, apparent distribution coefficient micellar/aqueous phase. It is filed as physicochemical.
Method: The next day the sample was warmed momentarily to 40° C. to hasten solubilization. This process was repeated two or three times to ensure saturation. […] Prior to analysis, the samples were filtered through a 0.2 μm nylon filter syringe to remove unsolubilized drug. Samples were assayed for solubilized drug concentrations by absorbance spectroscopy (see below).
Drug Concentration Determinations. The samples were diluted to a suitable concentration with ethanol (for water insoluble drugs) or DI water. Drug concentrations were measured at the appropriate wavelength for each drug (see Table I) using a UV/Vis spectrophotometer (Beckman model DU-65). Concentrations were determined using Beer's law from the appropriate calibration curve (Table II). Gentamicin sulfate determination was performed by the UCSD Medical Center laboratory.
Where S and So are the concentration of solubilized drug in the presence and absence of poloxamer, respectively.
The nature of data set [3]: In-vitro release rate of drugs in poloxamer gels. It is filed as physicochemical. The following applies: within the same poloxamer formulations.
Method: In-vitro release rate of drugs in poloxamer gels. The in-vitro release rates of drugs in poloxamer-based gels were determined using a modified USP dissolution apparatus (Hanson Research model SR6) equipped with enhancer cells. […] Membranes (1.2 μm cellulose ester membranes, 25 mm diameter, type RAWP) were presoaked in phosphate buffer and placed on the cell. Approximately 0.6 mL of sample in the fluid sol phase was then loaded into each of the enhancer cells. The cells were subsequently closed and the gel phase was allowed to form at room temperature prior to introduction into the dissolution vessels. The dissolution paddles were rotated at a speed of 100 rpm (approximating the hydrodynamic stress found at the peritoneal cavity) and were positioned approximately 1 cm from the top of the cells for all experiments. The in-vitro release of drug from the gels was monitored over a period of 4 hr. One mL samples were collected every 0.5 hr. The vessel was refilled with fresh buffer every time a sample aliquot was removed, and each sample was run in duplicate.

Turning to `CCCCCCCC(=O)[O-].[Na+]` [8:0 soap, sodium caprylate], in data set [1], the “soap concentration required to melt / completely suppress the 20% poloxamer 407F gel” value is around 11.5%.

For `CCCCCCCCCCCC(=O)[O-].[Na+]` [12:0 soap, sodium laurate], in data set [1], the “soap concentration required to melt / completely suppress the 20% poloxamer 407F gel” value was found to be 2.5%.

For the molecule `CCCCCCCCCC(=O)[O-].[Na+]` [sodium caprate], the “soap concentration required to melt / completely suppress the 20% poloxamer 407F gel” value in data set [1] is recorded as above 5%.

Regarding `Cc1ccc(C(=O)c2ccc(CC(=O)O)n2C)cc1` [sodium tolmetin, Tolmetin Sodium], the “partitioning between poloxamer micelle and bulk aqueous phase” value in data set [2] was “partitions almost entirely into the bulk aqueous phase”. The “differences in diffusion coefficients or mean dissolution times (MDT) between drugs” value in data set [3] is “no differences were observed”.
